From patent publication US8440675B2, “Potentiator of radiation therapy” (Taiho Pharmaceutical Co., Ltd., priority 2006, dated 2013) come the findings set out here.

What all share (format): in vivo
Data set [1] deals with human lung cancer strain (LC-11). Description: Test Example 4: anti-tumor effect of TAS-102 or FTD with or without X-ray irradiation in LC-11-transplanted nude mice.
The next data set has as its system mouse. Description: No observed adverse effect level on peroral administration to a mouse for 14 days. Particulars: perorally administered to a mouse for 14 days; TAS-102 dose as reduced to FTD. The procedure:
α,α,α-Trifluorothymidine (hereinafter abbreviated as FTD) and TPI were suspended in a 0.5% (w/v) HPMC solution to adjust their concentrations to 5.0 mg/mL and 2.65 mg/mL, respectively, and the suspension was stirred at room temperature for about 10 minutes. Subsequently, the suspension was ultrasonicated under ice cooling, to thereby prepare a drug liquid with a dose of 50 mg/kg/day (as reduced to FTD). Hereinafter, the drug liquid is referred to as TAS-102. The dose of the TAS-102 liquid is a “no observed adverse effect level” when the liquid is perorally administered to a mouse for 14 days.
FTD was suspended in a 0.5% (w/v) HPMC solution to adjust their concentrations to 5.0 mg/mL, and the suspension was stirred at room temperature for about 10 minutes. Subsequently, the suspension was ultrasonicated under ice cooling, to thereby prepare a FTD drug liquid with a dose of 50 mg/kg/day. The dose of FTD is a “no observed adverse effect level” when the liquid is perorally administered to a mouse for 14 days.

Data set [2] concerns human lung cancer strain (LC-11). In words: Test Example 2: anti-tumor effect of TPI or TUPI with or without X-ray irradiation in LC-11-transplanted nude mice. Particulars: for RTV Day 15 / RTV Day 22 / RTV Day 29: mean ± S.D. The protocol: TPI was suspended in a 0.5% (w/v) HPMC solution to adjust the concentration to 1.5 or 5.0 mg/mL, and the suspension was stirred at room temperature for about 10 minutes by means of a stirrer. Subsequently, the suspension was ultrasonicated under ice cooling for about five minutes, to thereby prepare a TPI drug liquid with a dose of 15 mg/kg/day or 50 mg/kg/day.
5-Chloro-6-aminouracil (hereinafter abbreviated as TUPI) was suspended in a 0.5% (w/v) HPMC solution to adjust the concentration to 5.0 mg/mL, and the suspension was stirred at room temperature for about 10 minutes by means of a stirrer. Subsequently, the suspension was ultrasonicated under ice cooling for about five minutes, to thereby prepare a TUPI drug liquid with a dose of 50 mg/kg/day.
By means of a radiation apparatus (model: MBR-1505R2, product of Hitachi Medical Corp.), mice were irradiated with X-rays under such irradiation conditions that the unit dose to one mouse was adjusted to 2 Gy or 5 Gy, by controlling the distance from the radiation source to the mouse. Specifically, radiation was applied locally to the right femoral region of each mouse where cells of a human tumor strain had been transplanted. In order to avoid systemic irradiation, the mouse was placed in a lead box so that only the right leg was exposed to the radiation.
The human lung cancer strain (LC-11) subcutaneously transplanted into the back of a BALB/cA-nu mouse and grown beforehand were removed, cut into small pieces (about 2×2 mm^2) with scissors in physiological saline, and subcutaneously transplanted into the right femoral region of 5- to 6-week-old mice of the same strain with a transplantation needle. The thus-treated mice were bred for adaptation for at least 1 to 2 weeks and divided into a control group, radiation-only groups, drug-only groups, and radiation-drug combination groups, each group consisting of 6 mice, such that the average tumor volume and the standard deviation (S.D.) were equalized to a maximum extent between groups. Then, administration of the drug and irradiation were started. To each of the mice of the groups subjected to drug administration, the aforementioned TPI liquid or TUPI liquid was perorally administered, by means of an oral administration probe, once a day at a dose of 0.1 mL/10 g-body weight for 14 continuous days. The mice of the groups subjected to radiation were irradiated with X-rays at a dose of 2 Gy or 5 Gy through the aforementioned method within about one hour after administration of the TPI liquid or the TUPI liquid on the test day 1 and day 8. To the cancer-bearing mice of the control group (non-radiation/non-drug administration group) and those of the radiation-only groups, only 0.5% HPMC liquid was perorally administered through the same method for 14 continuous days.
The tumor volume of each mouse of the above groups, which was calculated by the equation 1 in Test Example 1, was determined before the start of the treatment test, and on day 3, day 5, day 8 (1 week after), day 11, day 15 (after termination of administration, 2 weeks after), day 18, day […], day 25, and day 29 (4 weeks after). A relative tumor volume (RTV) to the tumor volume at the start of the test was obtained for each mouse. […] Then, the average tumor growth inhibition rate (IR: %) with respect to the control group was calculated on day 15, day 22, and day 29 (after termination of the treatment period) in a manner similar to that of Test Example 1.

[3] abbreviates: 50 mg/kg (as reduced to FTD) p.o. once a day for 14 days + X-ray 2 Gy on day 1 and day 8.
[4] abbreviates: 50 mg/kg (as reduced to FTD) p.o. once a day for 14 days, no X-ray.
Where [5] appears, read: 50 mg/kg p.o. once a day for 14 days + X-ray 2 Gy on day 1 and day 8.
Where [6] appears, read: 50 mg/kg p.o. once a day for 14 days, no X-ray.

Several values for one entry are separate records, joined by “and”; a condition that tells them apart may be missing. Identical values can stand only once.

As for `O=c1[nH]c(=O)n([C@H]2C[C@H](O)[C@@H](CO)O2)cc1C(F)(F)F` [FTD, α,α,α-Trifluorothymidine], in data set [1] (setting [3]), the “IR (%) Day 15” value is given as 35.8%, the “IR (%) Day 22” value is given as 48.6% and the “IR (%) Day 29” value turned out to be 58.5%. Besides, in data set [1] (setting [4]), the “IR (%) Day 15” value is 52% and 51.8%; the “IR (%) Day 22” value was 57% and 57.2%; the “IR (%) Day 29” value came to 59%. The “potentiation of anti-tumor effect of X-ray radiation (in words)” value in data set [1] (50 mg/kg + X-ray 2 Gy) is “the anti-tumor effect did not increase”. The “no observed adverse effect level” value in the data set with mouse is given as 50 mg/kg/day.

On to `Nc1[nH]c(=O)[nH]c(=O)c1Cl` [TUPI, 5-Chloro-6-aminouracil, reference compound], for which, in data set [2] (setting [5]), the “IR (%) Day 15” value is reported as 36.6%, the “IR (%) Day 22” value came out at 41.2%, the “IR (%) Day 29” value amounted to 50.2% and the “RTV Day 15” value came out at 3.2 ± 0.8. In addition, in data set [2] (setting [5]), the “RTV Day 22” value is reported as 5.3 ± 1.7 and the “RTV Day 29” value is listed as 8.8 ± 2.5. In addition, in data set [2] (setting [6]), the “IR (%) Day 15” value worked out at 12.7%, the “IR (%) Day 22” value came to 17.5%, the “IR (%) Day 29” value is on record as 21.4% and the “RTV Day 15” value worked out at 4.4 ± 1.8. Moreover, in data set [2] (setting [6]), the “RTV Day 22” value is listed as 7.4 ± 3.3 and the “RTV Day 29” value was 14.0 ± 6.3. Besides, the “anti-tumor effect of the drug singly administered (in words)” value in data set [2] (50 mg/kg, no X-ray) is recorded as “virtually no anti-tumor effect”. The “potentiation of anti-tumor effect of X-ray radiation (in words)” value in data set [2] (drug + X-ray 2 Gy) was “no potentiation of anti-tumor effect was observed”.
